# Data as given in publication PMC7880690, “Chemical genetics and proteome-wide site mapping reveal cysteine MARylation by PARP-7 on immune-relevant protein targets” (eLife, 2021).
# Columns and labels:
# [1] = target: T1, GFP-WT-PARP-7 (Homo sapiens, UniProt Q7Z3E1); test: Labeling by orthogonal NAD+ analogs in HEK 293T lysates expressing GFP-WT-PARP-7; assay type: biochemical; conditions: HEK 293 T cell lysates, 100 µM NAD+ analog
# T1 construct: expressed in transfected cells; host or cells: HEK 293T
# T1 sequence (Q7Z3E1 1-657): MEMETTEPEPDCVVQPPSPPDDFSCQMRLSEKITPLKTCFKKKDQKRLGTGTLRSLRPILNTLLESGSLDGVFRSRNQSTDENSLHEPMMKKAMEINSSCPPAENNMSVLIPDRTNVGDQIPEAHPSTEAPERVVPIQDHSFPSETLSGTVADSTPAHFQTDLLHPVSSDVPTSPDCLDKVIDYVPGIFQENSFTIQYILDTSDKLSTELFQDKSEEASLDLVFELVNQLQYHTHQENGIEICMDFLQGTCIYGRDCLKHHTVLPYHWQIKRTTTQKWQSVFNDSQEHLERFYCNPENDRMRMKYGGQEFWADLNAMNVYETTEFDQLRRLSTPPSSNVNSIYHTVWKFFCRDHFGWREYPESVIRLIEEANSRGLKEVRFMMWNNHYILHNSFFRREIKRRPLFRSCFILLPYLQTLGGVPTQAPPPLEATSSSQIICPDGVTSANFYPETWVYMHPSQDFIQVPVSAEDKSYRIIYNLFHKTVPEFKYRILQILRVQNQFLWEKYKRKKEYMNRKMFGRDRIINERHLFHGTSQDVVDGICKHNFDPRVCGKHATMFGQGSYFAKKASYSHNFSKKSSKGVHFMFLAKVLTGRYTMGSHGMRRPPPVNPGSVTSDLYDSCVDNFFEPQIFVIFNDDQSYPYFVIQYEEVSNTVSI
# From the text: Figure 1. A chemical genetic strategy for identifying the direct MARylation targets of PARP-7. (a) Schematic of chemical genetic approach for identifying direct targets of PARP-7. (b) Crystal structure of human PARP1 bound to the non-hydrolyzable NAD^+ analog benzamide adenine dinucleotide (BAD). PDB: 6bhv. […] (c) Chemical structure of the clickable, orthogonal NAD^+ analogs. 5-Bn-2-e-NAD^+ is the optimized substrate for the floor position engineered PARP-7, IG-PARP-7. 5-Bn-6-a-NAD^+ was used in our previous studies by other floor position engineered PARPs (e.g. PARP14). (d) 5-Bn-2-e-NAD^+ is an efficient substrate for IG-PARP-7. HEK293T cells were transfected with either GFP-WT-PARP-7 (control) or GFP-IG-PARP-7. Cell lysates were prepared and incubated with either 5-Bn-2-e-NAD^+ or 5-Bn-6-a-NAD^+ (100 µM). Following copper-catalyzed click chemistry with biotin-azide, proteins were resolved by SDS-PAGE and biotinylated proteins were detected by Western blot detection using Streptavidin-HRP. Biotinylated proteins represent direct MARylation targets of PARP-7. Figure 1—figure supplement 1. Enrichment of PARP-7 MARylation targets and labeling of PARP-12 IG targets using a chemical genetic approach. (a) Labeling of PARP-7 MARylation targets was performed as described in Figure 1. Neutravidin agarose was used to enrich biotinylated proteins (i.e. MARylation targets). […]
# [2] = target: T2, PARP16FL (Homo sapiens, UniProt Q8N5Y8); test: ADP-ribosylation plate assay, PARP16FL
# T2 sequence (Q8N5Y8 1-322): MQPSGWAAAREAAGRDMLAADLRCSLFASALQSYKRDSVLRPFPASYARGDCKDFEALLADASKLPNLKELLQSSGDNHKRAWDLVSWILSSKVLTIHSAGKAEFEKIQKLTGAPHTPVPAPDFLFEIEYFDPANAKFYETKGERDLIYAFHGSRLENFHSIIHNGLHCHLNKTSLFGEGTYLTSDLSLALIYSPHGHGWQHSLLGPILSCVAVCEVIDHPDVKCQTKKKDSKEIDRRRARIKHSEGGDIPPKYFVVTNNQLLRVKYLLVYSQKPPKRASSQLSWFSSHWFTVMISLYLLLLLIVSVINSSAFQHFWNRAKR
# [3] = target: T3, PARP-7 (Homo sapiens, UniProt Q7Z3E1)
# T3 sequence (Q7Z3E1 1-657): T1 sequence (Q7Z3E1 1-657)
SMILES,substrate for GFP-WT-PARP-7 [1],IC50 [2],EC50 [3]
"C#Cc1nc(N)c2ncn(C3OC(COP(=O)(O)OP(=O)([O-])OCC4OC([n+]5cc(Cc6ccccc6)cc(C(N)=O)c5)C(O)C4O)C(O)C3O)c2n1 (stereo not drawn) [5-Bn-2-e-NAD^+, 5-benzyl-2-ethynyl-NAD^+]",not a substrate,,
"N#Cc1ccc(N2CCN(C(=O)c3cc(Cc4n[nH]c(=O)c5ccccc45)ccc3F)CC2)nc1 [Phthal01, 6-(4-(2-fluoro-5-((4-oxo-3,4-dihydrophthalazin-1-yl)methyl)benzoyl)piperazin-1-yl)nicotinonitrile]",,4300 ± 1000 nM,~60 nM
